Assay results published in US20100204119A1, “4-AMINO-5-OXO-7,8-DIHYDROPYRIMIDO[5,4-F][1,4]OXAZEPIN-6(5H)-YL PHENYL DERIVATIVES” (Pfizer Inc, priority 2009, published 2010).

Target: T1, Human full-length diacylglycerol:acylCoA acyltransferase 1 (DGAT-1) (Homo sapiens, UniProt O75907)
T1 sequence (O75907 1-488): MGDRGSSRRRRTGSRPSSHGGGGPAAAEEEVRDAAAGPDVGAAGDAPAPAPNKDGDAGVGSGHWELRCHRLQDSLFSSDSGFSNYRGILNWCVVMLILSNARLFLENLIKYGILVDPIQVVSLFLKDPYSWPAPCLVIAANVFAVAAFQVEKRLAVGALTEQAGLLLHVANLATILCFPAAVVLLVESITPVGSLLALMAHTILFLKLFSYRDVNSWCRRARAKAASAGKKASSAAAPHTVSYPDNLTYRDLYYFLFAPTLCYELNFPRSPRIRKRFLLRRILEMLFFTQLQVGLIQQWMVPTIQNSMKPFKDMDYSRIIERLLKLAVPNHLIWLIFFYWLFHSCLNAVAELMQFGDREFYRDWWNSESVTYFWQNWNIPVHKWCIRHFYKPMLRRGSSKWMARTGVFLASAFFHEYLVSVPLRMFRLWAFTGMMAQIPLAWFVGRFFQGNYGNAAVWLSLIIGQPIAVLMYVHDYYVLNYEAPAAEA
Assay: In vitro assay for inhibition of DGAT-1 activity (DGAT 1 Reduced Microsome Multidose Assay)
Conditions: average where n > 1

[1] = Trial 4 Human IC50, Trial 4: eight concentrations of inhibitor, microsomes 5 μg/mL

Description: Human full-length diacylglycerol:acylCoA acyltransferase 1 (DGAT-1) was expressed in Sf9 insect cells which are then lysed and a crude membrane fraction (105,000×g pellet) was prepared.
Inhibitors in DMSO were pre-incubated with membranes before initiating the DGAT-1 reaction by the addition of decanoylCoA. […] The inhibitors were present at a range of eight concentrations to generate an apparent IC50 for each compound. […] Specifically, the eight concentrations used were 3 μM, 1 μM, 300 nM, 100 nM, 30 nM, 10 nM, 3 nM and 1 nM.
The reactions were allowed to proceed for 1.5 hours at room temperature and then terminated by the addition of 20 μl of EDTA (40 mM). Reaction mixture is then mixed by trituration with 30 μl of Microscint™-E (Perkin Elmer). […] Four separate trials were conducted. The method of analysis of Trial 1 was the same as Trial 4 (described above) except microsomes were utilized at 25 μg/mL instead of 5 μg/mL. The method of analysis of Trial 2 was the same as Trial 4 (described above) except eleven (11) concentrations of inhibitor were employed instead of eight (8). The method of analysis of Trial 3 was the same as Trial 2 except the compounds were serially diluted in a different laboratory.
Where this DGAT-1 inhibition assay was performed on a compound more than once, an average is provided for that compound.

| Structure (SMILES) | IC50 (Trial 1 Human IC50, Trial 1: as Trial 4 except microsomes at 25 μg/mL instead of 5 μg/mL) | IC50 [1] |
| --- | --- | --- |
| C[C@@H]1CN(c2ccc(C(C)(C)O)cc2)C(=O)c2c(N)ncnc2O1 [Example 1A-2, (8R)-4-amino-6-(4-(2-hydroxypropan-2-yl)phenyl)-8-methyl-7,8-dihydropyrimido[5,4-f][1,4]oxazepin-5(6H)-one] |  | 61.4 nM |
| C[C@@H]1CN(c2ccc(Cl)c(Cl)c2)C(=O)c2c(N)ncnc2O1 [Example 1AB, (8R)-4-amino-6-(3,4-dichlorophenyl)-8-methyl-7,8-dihydropyrimido[5,4-F][1,4]oxazepin-5(6H)-one] |  | 24.8 nM |
| C[C@@H]1CN(c2ccc([C@@H](O)C(C)(C)C)cc2)C(=O)c2c(N)ncnc2O1 [Example 1AC] |  | 55.4 nM |
| C[C@@H]1CN(c2ccc([C@H](O)C(C)(C)C)cc2)C(=O)c2c(N)ncnc2O1 [Example 1AD] |  | 22.6 nM |
| C[C@@H]1CN(c2ccc(C3(C(N)=O)CCCCC3)cc2)C(=O)c2c(N)ncnc2O1 [Example 1AE, 1-{4-[(8R)-4-amino-8-methyl-5-oxo-7,8-dihydropyrimido[5,4-f][1,4]oxazepin-6(5H)-yl]phenyl}cyclohexanecarboxamide] |  | 82.4 nM |
| C[C@@H]1CN(c2ccc(C3(C(N)=O)CCCC3)cc2)C(=O)c2c(N)ncnc2O1 [Example 1AF, 1-{4-[(8R)-4-amino-8-methyl-5-oxo-7,8-dihydropyrimido[5,4-f][1,4]oxazepin-6(5H)-yl]phenyl}cyclopentanecarboxamide] |  | 117 nM |
| COC(C)(C)Cc1ccc(N2C[C@@H](C)Oc3ncnc(N)c3C2=O)cc1 [Example 1AG] |  | 45.2 nM |
| C[C@@H]1CN(c2ccc(C3(C(N)=O)CCC3)cc2)C(=O)c2c(N)ncnc2O1 [Example 1AH, 1-{4-[(8R)-4-amino-8-methyl-5-oxo-7,8-dihydropyrimido[5,4-f][1,4]oxazepin-6(5H)-yl]phenyl}cyclobutanecarboxamide] |  | 78.2 nM |
| C[C@@H]1CN(c2ccc(C3(O)CCCCC3)cc2)C(=O)c2c(N)ncnc2O1 [Example 1AJ] |  | 35.6 nM |
| CCOC(C)(C)c1ccc(N2C[C@@H](C)Oc3ncnc(N)c3C2=O)cc1 [Example 1AK, (8R)-4-amino-6-[4-(1-ethoxy-1-methylethyl)phenyl]-8-methyl-7,8-dihydropyrimido[5,4-f][1,4]oxazepin-5(6H)-one] |  | 42.3 nM |
| C[C@@H]1CN(c2ccc(CC(C)(C)O)cc2)C(=O)c2c(N)ncnc2O1 [Example 1AN] |  | 104 nM |
| C[C@@H]1CN(c2ccc(C(C)(C)C(=O)O)cc2)C(=O)c2c(N)ncnc2O1 [Example 1AO, 2-{4-[(8R)-4-amino-8-methyl-5-oxo-7,8-dihydropyrimido[5,4-f][1,4]oxazepin-6(5H)-yl]phenyl}-2-methylpropanoic acid] |  | 20 nM |

Results, then the compound that gave them:

| IC50 (Trial 1 Human IC50, Trial 1: as Trial 4 except microsomes at 25 μg/mL instead of 5 μg/mL) | IC50 [1] | Structure (SMILES) |
| --- | --- | --- |
| 104 nM |  | CC(C)(O)CC[C@H]1CC[C@H](c2ccc(N3CCOc4ncnc(N)c4C3=O)cc2)CC1 [Example 1A-1] |
|  | 42.7 nM | COCC(C)(C)c1ccc(N2C[C@@H](C)Oc3ncnc(N)c3C2=O)cc1 [Example 1AA] |
|  | 15.5 nM | CCC(CC)(OC)c1ccc(N2C[C@@H](C)Oc3ncnc(N)c3C2=O)cc1 [Example 1AI, (8R)-4-amino-6-[4-(1-ethyl-1-methoxypropyl)phenyl]-8-methyl-7,8-dihydropyrimido[5,4-f][1,4]oxazepin-5(6H)-one] |
|  | 34.6 nM | COC(C)(C)c1ccc(N2C[C@@H](C)Oc3ncnc(N)c3C2=O)cc1 [Example 1AL, (8R)-4-amino-6-[4-(1-methoxy-1-methylethyl)phenyl]-8-methyl-7,8-dihydropyrimido[5,4-f][1,4]oxazepin-5(6H)-one] |
|  | 313 nM | C[C@@H]1CN(c2ccc(CC(N)=O)cc2)C(=O)c2c(N)ncnc2O1 [Example 1AM, (8R)-2-(4-(4-amino-8-methyl-5-oxo-7,8-dihydropyrimido[5,4-f][1,4]oxazepin-6(5H)-yl)phenyl)acetamide] |
|  | 29.4 nM | CCC(O)(CC)c1ccc(N2C[C@@H](C)Oc3ncnc(N)c3C2=O)cc1 [Example 1AP, (8R)-4-Amino-6-[4-(1-ethyl-1-hydroxypropyl)phenyl]-8-methyl-7,8-dihydropyrimido[5,4-f][1,4]oxazepin-5(6H)-one] |
